# Source: ChEMBL document CHEMBL1128825, “Synthetic inhibitors of interleukin-6 II: 3,5-diaryl pyridines and meta-terphenyls” (Bioorg Med Chem Lett, 1995)
# Calls of active or inactive are those of the source. The rule behind the calls is not given here.
# What was measured:
# WEHI265.1 [1] = assay: In vitro inhibitory activity against lipopolysaccharide (LPS)-induced IL-6 production in murine myelomonocytic uM; assay type: functional, Mus musculus; set-up: concentration or dose not given beside the values
# WEHI265.1 [2] = assay: In vitro inhibitory activity against lipopolysaccharide (LPS) -induced IL-6 production in murine myelomonocytic uM; cytotoxic; assay type: functional, cell-based; conditions: Mus musculus
# Mus musculus [3] = assay: Effective dose required for in vivo inhibition of serum IL-6.; assay type: functional
# Mus musculus [4] = assay: In vivo inhibition of TNF- alpha after intraperitoneal administration of 25 mpk dose; showed no inhibition; assay type: functional, organism-based
# Mus musculus [5] = assay: In vivo inhibition of serum IL-6 after intraperitoneal administration of 25 mpk dose.; assay type: functional; conditions: ip
# Mus musculus [6] = assay: In vivo inhibition of serum IL-5 after i.p. administration of 25 mpk dose; showed no inhibition; assay type: functional, organism-based
# Mus musculus [7] = organism: Mus musculus; assay: Inhibitory activity against serum IL-6.; assay type: functional, organism-based
# Mus musculus [8] = assay: In vivo inhibition of serum IL-1 after i.p. administration of 25 mpk dose; showed no inhibition; assay type: functional, organism-based
# Mus musculus [9] = assay: In vivo inhibition of serum IL-6 after peroral administration of 25 mpk dose.; assay type: functional; conditions: po
Compound,Inhibition (WEHI265.1 [1]),other results
Oc1ccc(-c2cccnc2)cc1,0%,
Cc1cncc(-c2ccc(O)cc2)c1,7%,
COc1ccc(-c2ccc(-c3ccc(OC)cc3)nc2)cc1,30%,
c1ccc(-c2cncc(-c3ccccc3)c2)cc1,8%,
Oc1ccc(-c2cncc(Cl)c2)cc1,0%,
Oc1ccccc1-c1cccc(-c2ccccc2O)c1,21%,
N#Cc1ncc(-c2ccc(O)cc2)cc1-c1ccc(O)cc1,40%,
Fc1ccc(-c2cncc(-c3ccc(F)cc3)c2)cc1,44%,
Oc1ccccc1-c1cncc(-c2ccccc2O)c1,23%,
COc1ccc(-c2cncc(-c3ccc(OC)cc3)c2)cc1,0%,
COc1ccccc1-c1cccc(-c2ccccc2OC)c1,22%,
Oc1ccc(-c2cncc(-c3ccc(O)cc3)c2Cl)cc1,60%,
Oc1ccc(-c2cnc(Cl)c(-c3ccc(O)cc3)c2)cc1,61%,
Fc1ccc(-c2cccc(-c3ccc(F)cc3)n2)cc1,44%,
Fc1ccc(-c2ccc(-c3ccc(F)cc3)nc2)cc1,47%,
COc1cccc(-c2cccc(-c3cccc(OC)c3)c2)c1,24%,
COc1ccc(-c2cccc(-c3ccc(OC)cc3)n2)cc1,55%,
CN(C)Cc1ccc(-c2cncc(-c3ccc(CN(C)C)cc3)c2)cc1,60%,
CN(C)Cc1ccc(-c2cccc(-c3ccc(CN(C)C)cc3)c2)cc1,,inhibition (WEHI265.1 [2]): Toxic
Oc1ccc(-c2cc(-c3ccc(O)cc3)c(Cl)nc2Cl)cc1,52%,
Oc1ccc(-c2cccc(-c3ccc(O)cc3)n2)cc1,23%,
Oc1ccc(-c2cncc(-c3ccc(O)cc3)n2)cc1,55%,
Oc1ccc(-c2cccc(-c3ccc(O)cc3)c2)cc1,85%,ED50 (Mus musculus [3]): 1.5 mg/kg; Activity (Mus musculus [4]): inactive; inhibition in vivo at 25 mg/kg (Mus musculus [5]): 88%; Activity (Mus musculus [6]): inactive; IC50 (Mus musculus [7]): 1500 nM; Activity (Mus musculus [8]): inactive
Oc1cccc(-c2cccc(-c3cccc(O)c3)c2)c1,21%,
Oc1cccc(-c2cncc(-c3cccc(O)c3)c2)c1,59%,
Oc1ccc(-c2cncc(-c3ccc(O)cc3)c2)cc1,73%,ED50 (Mus musculus [3]): 2.8 mg/kg; Activity (Mus musculus [4]): inactive; inhibition in vivo at 25 mg/kg (Mus musculus [5]): 63%; Activity (Mus musculus [6]): inactive; IC50 (Mus musculus [7]): 400 nM; Activity (Mus musculus [8]): inactive; inhibition in vivo at 25 mg/kg (Mus musculus [9]): 71%
[O-][n+]1cc(-c2ccc(O)cc2)cc(-c2ccc(O)cc2)c1,37%,
COc1ccc(-c2cccc(-c3ccc(OC)cc3)c2)cc1,75%,
Oc1ccc(-c2ccc(-c3ccc(O)cc3)nc2)cc1,27%,
Oc1ccc(-c2cnc(O)c(-c3ccc(O)cc3)c2)cc1,49%,
